Data published in ChEMBL document CHEMBL4507267 (2021).

Columns and labels:
[1] = molecular target: Cyclin-dependent kinase 13 (Homo sapiens) (UniProt Q14004); settings: Compound concentration 1000.0 nM
[2] = tested on: Phosphatidylinositol 4,5-bisphosphate 3-kinase catalytic subunit alpha isoform (Homo sapiens), P42336 [H1047Y]; settings: Compound concentration 1000.0 nM
[3] = molecular target: Ribosomal protein S6 kinase alpha-5 (Homo sapiens) (UniProt O75582); settings: Compound concentration 1000.0 nM
[4] = molecular target: Serine/threonine-protein kinase PLK1 (Homo sapiens) (UniProt P53350); settings: Compound concentration 1000.0 nM
[5] = molecular target: Alpha-1D adrenergic receptor (Homo sapiens) (UniProt P25100); settings: Compound concentration 10.0 uM
[6] = molecular target: Calcium/calmodulin-dependent protein kinase type II subunit delta (Homo sapiens) (UniProt Q13557); settings: Compound concentration 1000.0 nM
[7] = molecular target: Receptor tyrosine-protein kinase erbB-3 (Homo sapiens) (UniProt P21860); settings: Compound concentration 1000.0 nM
[8] = molecular target: Serine/threonine-protein kinase Nek6 (Homo sapiens) (UniProt Q9HC98); settings: Compound concentration 1000.0 nM
[9] = molecular target: Alpha-2A adrenergic receptor (Homo sapiens) (UniProt P08913); settings: Compound concentration 10.0 uM
[10] = tested on: Phosphatidylinositol 4,5-bisphosphate 3-kinase catalytic subunit alpha isoform (Homo sapiens), P42336 [H1047L]; settings: Compound concentration 1000.0 nM
[11] = molecular target: Serine/threonine-protein kinase Chk1 (Homo sapiens) (UniProt O14757); settings: Compound concentration 1000.0 nM
[12] = molecular target: Macrophage colony-stimulating factor 1 receptor (Homo sapiens) (UniProt P07333); settings: Compound concentration 1000.0 nM
[13] = tested on: Tyrosine-protein kinase ABL1 (Homo sapiens), P00519 [H396P]; settings: Compound concentration 1000.0 nM
[14] = tested on: Tyrosine-protein kinase ABL1 (Homo sapiens), P00519 [F317L]; settings: Compound concentration 1000.0 nM
[15] = molecular target: Fibroblast growth factor receptor 1 (Homo sapiens) (UniProt P11362); settings: Compound concentration 1000.0 nM
[16] = molecular target: Proto-oncogene tyrosine-protein kinase ROS (Homo sapiens) (UniProt P08922); settings: Compound concentration 1000.0 nM
[17] = molecular target: SRSF protein kinase 2 (Homo sapiens) (UniProt P78362); settings: Compound concentration 1000.0 nM
[18] = molecular target: Serine/threonine-protein kinase MRCK beta (Homo sapiens) (UniProt Q9Y5S2); settings: Compound concentration 1000.0 nM
Serine/threonine-protein kinase MRCK beta (Homo sapiens), sequence (Q9Y5S2 whole entry): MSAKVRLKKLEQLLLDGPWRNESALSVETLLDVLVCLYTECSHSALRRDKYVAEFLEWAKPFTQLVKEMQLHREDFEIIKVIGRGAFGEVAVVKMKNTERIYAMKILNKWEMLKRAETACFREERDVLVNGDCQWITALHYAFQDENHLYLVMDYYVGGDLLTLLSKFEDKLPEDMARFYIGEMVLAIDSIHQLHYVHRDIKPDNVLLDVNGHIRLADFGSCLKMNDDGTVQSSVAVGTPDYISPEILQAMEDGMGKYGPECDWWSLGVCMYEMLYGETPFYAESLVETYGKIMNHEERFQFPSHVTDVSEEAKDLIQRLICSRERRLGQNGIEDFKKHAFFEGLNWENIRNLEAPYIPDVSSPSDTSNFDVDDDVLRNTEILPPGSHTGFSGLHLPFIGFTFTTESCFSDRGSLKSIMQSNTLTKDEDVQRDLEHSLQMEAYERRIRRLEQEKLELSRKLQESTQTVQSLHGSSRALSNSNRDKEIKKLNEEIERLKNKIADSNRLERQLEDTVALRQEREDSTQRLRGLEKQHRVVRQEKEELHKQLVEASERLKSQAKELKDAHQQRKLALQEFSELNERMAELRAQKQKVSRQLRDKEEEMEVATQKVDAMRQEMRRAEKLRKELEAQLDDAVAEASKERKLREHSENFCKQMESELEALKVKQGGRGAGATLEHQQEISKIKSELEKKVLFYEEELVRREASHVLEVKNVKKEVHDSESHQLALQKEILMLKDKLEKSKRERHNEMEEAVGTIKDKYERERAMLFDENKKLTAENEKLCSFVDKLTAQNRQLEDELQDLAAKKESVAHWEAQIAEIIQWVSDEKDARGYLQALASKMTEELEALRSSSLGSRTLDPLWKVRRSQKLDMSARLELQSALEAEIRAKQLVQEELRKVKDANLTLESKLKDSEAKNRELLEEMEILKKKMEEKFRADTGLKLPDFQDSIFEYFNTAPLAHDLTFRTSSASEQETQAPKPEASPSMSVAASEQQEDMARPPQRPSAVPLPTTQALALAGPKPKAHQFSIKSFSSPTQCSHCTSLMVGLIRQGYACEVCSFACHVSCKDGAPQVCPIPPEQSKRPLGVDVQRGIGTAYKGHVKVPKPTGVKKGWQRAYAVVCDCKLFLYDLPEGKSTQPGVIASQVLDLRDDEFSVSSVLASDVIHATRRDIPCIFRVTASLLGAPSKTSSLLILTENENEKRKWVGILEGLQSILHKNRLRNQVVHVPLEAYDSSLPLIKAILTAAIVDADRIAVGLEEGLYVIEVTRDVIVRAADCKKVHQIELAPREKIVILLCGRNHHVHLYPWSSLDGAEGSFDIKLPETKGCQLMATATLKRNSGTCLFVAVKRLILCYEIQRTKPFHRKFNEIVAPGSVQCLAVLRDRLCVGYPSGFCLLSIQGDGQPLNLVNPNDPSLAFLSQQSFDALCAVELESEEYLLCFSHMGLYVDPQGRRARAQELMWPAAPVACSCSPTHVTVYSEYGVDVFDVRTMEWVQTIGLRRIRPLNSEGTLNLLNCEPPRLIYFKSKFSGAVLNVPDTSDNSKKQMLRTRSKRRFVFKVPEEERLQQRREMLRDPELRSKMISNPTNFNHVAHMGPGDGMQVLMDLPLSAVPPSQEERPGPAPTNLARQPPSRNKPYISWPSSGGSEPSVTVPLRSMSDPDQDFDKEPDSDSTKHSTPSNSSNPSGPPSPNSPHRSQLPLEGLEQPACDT

[19] = molecular target: Protein kinase C eta type (Homo sapiens) (UniProt P24723); settings: Compound concentration 1000.0 nM
[20] = molecular target: Dual specificity mitogen-activated protein kinase kinase 1 (Homo sapiens) (UniProt Q02750); settings: Compound concentration 1000.0 nM
[21] = molecular target: Calcium/calmodulin-dependent protein kinase type II subunit gamma (Homo sapiens) (UniProt Q13555); settings: Compound concentration 1000.0 nM
[22] = molecular target: Calcium/calmodulin-dependent protein kinase type IV (Homo sapiens) (UniProt Q16566); settings: Compound concentration 1000.0 nM
[23] = molecular target: cGMP-dependent protein kinase 2 (Homo sapiens) (UniProt Q13237); settings: Compound concentration 1000.0 nM
[24] = molecular target: Mitogen-activated protein kinase 3 (Homo sapiens) (UniProt P27361); settings: Compound concentration 1000.0 nM
[25] = molecular target: Testis-specific serine/threonine-protein kinase 1 (Homo sapiens) (UniProt Q9BXA7); settings: Compound concentration 1000.0 nM
[26] = molecular target: D(2) dopamine receptor (Homo sapiens) (UniProt P14416); settings: Compound concentration 10.0 uM
[27] = molecular target: Serine/threonine-protein kinase TAO1 (Homo sapiens) (UniProt Q7L7X3); settings: Compound concentration 1000.0 nM
[28] = molecular target: Serine/threonine-protein kinase SIK1 (Homo sapiens) (UniProt P57059); settings: Compound concentration 1000.0 nM
[29] = molecular target: Cyclin-dependent kinase-like 3 (Homo sapiens) (UniProt Q8IVW4); settings: Compound concentration 1000.0 nM
[30] = molecular target: Phosphatidylinositol 3-kinase C2 domain-containing subunit gamma (Homo sapiens) (UniProt O75747); settings: Compound concentration 1000.0 nM
[31] = molecular target: Mitogen-activated protein kinase kinase kinase 6 (Homo sapiens) (UniProt O95382); settings: Compound concentration 1000.0 nM
[32] = tested on: Phosphatidylinositol 4,5-bisphosphate 3-kinase catalytic subunit alpha isoform (Homo sapiens), P42336 [E542K]; settings: Compound concentration 1000.0 nM
[33] = molecular target: Sodium-dependent dopamine transporter (Homo sapiens) (UniProt Q01959); settings: Compound concentration 10.0 uM
[34] = molecular target: Phosphatidylinositol 4,5-bisphosphate 3-kinase catalytic subunit delta isoform (Homo sapiens) (UniProt O00329); settings: Compound concentration 1000.0 nM
[35] = molecular target: Death-associated protein kinase 3 (Homo sapiens) (UniProt O43293); settings: Compound concentration 1000.0 nM
[36] = molecular target: LIM domain kinase 2 (Homo sapiens) (UniProt P53671); settings: Compound concentration 1000.0 nM
LIM domain kinase 2 (Homo sapiens), sequence (P53671 whole entry, looked up, the tested form may be a part): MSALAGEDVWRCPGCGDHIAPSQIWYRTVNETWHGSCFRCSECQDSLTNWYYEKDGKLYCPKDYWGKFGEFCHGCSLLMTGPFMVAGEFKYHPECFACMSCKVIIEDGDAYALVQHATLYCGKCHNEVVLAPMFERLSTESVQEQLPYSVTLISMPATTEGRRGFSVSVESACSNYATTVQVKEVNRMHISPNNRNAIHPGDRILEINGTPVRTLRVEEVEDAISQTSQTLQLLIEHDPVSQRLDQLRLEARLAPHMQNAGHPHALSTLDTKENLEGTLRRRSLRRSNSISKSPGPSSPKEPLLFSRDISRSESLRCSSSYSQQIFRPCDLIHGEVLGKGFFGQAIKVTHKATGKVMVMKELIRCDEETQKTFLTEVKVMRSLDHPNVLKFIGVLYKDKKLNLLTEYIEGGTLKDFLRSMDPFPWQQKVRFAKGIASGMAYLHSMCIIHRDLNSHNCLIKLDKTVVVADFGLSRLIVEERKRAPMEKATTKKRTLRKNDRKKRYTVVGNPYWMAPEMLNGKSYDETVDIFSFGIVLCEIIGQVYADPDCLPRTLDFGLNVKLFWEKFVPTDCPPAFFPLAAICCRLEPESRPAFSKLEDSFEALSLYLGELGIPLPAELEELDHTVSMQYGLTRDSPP

[37] = molecular target: Serine/threonine-protein kinase 35 (Homo sapiens) (UniProt Q8TDR2); settings: Compound concentration 1000.0 nM
[38] = tested on: Mast/stem cell growth factor receptor Kit (Homo sapiens), P10721 [L576P]; settings: Compound concentration 1000.0 nM
[39] = molecular target: Mitogen-activated protein kinase 4 (Homo sapiens) (UniProt P31152); settings: Compound concentration 1000.0 nM
[40] = molecular target: Serine/threonine-protein kinase Nek10 (Homo sapiens) (UniProt Q6ZWH5); settings: Compound concentration 1000.0 nM
Serine/threonine-protein kinase Nek10 (Homo sapiens), sequence (Q6ZWH5 whole entry): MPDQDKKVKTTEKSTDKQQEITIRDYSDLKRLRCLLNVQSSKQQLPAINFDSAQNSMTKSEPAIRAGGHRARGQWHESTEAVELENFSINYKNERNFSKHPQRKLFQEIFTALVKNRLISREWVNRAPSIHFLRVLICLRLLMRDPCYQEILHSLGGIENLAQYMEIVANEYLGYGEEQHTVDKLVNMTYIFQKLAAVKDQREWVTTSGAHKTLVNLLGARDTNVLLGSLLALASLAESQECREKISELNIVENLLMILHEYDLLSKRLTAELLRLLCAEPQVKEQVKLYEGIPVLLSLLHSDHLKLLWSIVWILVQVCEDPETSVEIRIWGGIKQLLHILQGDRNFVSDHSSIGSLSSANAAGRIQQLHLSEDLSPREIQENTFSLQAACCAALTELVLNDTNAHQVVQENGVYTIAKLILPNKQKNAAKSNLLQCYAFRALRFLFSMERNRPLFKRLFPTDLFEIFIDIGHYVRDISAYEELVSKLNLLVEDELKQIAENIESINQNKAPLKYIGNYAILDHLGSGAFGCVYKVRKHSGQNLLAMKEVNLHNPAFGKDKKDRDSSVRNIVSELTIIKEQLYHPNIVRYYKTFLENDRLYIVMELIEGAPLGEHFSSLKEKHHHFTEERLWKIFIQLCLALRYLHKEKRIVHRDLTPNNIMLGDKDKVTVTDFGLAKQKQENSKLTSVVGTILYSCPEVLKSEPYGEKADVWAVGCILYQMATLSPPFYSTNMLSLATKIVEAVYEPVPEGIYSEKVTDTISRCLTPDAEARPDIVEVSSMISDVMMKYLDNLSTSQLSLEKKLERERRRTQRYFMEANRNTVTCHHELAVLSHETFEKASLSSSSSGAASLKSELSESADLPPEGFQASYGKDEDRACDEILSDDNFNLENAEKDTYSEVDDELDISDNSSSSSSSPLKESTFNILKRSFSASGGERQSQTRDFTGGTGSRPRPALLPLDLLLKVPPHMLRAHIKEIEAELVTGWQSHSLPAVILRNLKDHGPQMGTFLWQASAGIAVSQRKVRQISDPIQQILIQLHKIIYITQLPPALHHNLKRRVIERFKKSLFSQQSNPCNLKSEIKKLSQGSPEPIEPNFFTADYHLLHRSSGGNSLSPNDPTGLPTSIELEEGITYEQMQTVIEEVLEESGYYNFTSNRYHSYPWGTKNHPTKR

[41] = molecular target: Aurora kinase B (Homo sapiens) (UniProt Q96GD4); settings: Compound concentration 1000.0 nM
Aurora kinase B (Homo sapiens), sequence (Q96GD4 whole entry, the tested form may be a part): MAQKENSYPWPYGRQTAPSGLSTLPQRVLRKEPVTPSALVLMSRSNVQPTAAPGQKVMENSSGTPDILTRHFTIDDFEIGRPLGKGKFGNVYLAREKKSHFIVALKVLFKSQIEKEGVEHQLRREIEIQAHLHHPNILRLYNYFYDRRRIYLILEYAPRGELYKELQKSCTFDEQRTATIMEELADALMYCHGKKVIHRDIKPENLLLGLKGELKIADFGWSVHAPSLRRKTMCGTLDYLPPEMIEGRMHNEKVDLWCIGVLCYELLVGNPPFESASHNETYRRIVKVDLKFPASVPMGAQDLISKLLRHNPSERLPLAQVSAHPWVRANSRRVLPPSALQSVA

[42] = molecular target: Discoidin domain-containing receptor 2 (Homo sapiens) (UniProt Q16832); settings: Compound concentration 1000.0 nM
[43] = molecular target: Phosphatidylinositol 4,5-bisphosphate 3-kinase catalytic subunit beta isoform (Homo sapiens) (UniProt P42338); settings: Compound concentration 1000.0 nM
[44] = molecular target: Receptor tyrosine-protein kinase erbB-2 (Homo sapiens) (UniProt P04626); settings: Compound concentration 1000.0 nM
[45] = molecular target: RAC-alpha serine/threonine-protein kinase (Homo sapiens) (UniProt P31749); settings: Compound concentration 1000.0 nM

Phosphatidylinositol 4,5-bisphosphate 3-kinase catalytic subunit alpha isoform (Homo sapiens), P42336 [H1047Y], sequence (P42336 whole entry H1047Y, canonical isoform): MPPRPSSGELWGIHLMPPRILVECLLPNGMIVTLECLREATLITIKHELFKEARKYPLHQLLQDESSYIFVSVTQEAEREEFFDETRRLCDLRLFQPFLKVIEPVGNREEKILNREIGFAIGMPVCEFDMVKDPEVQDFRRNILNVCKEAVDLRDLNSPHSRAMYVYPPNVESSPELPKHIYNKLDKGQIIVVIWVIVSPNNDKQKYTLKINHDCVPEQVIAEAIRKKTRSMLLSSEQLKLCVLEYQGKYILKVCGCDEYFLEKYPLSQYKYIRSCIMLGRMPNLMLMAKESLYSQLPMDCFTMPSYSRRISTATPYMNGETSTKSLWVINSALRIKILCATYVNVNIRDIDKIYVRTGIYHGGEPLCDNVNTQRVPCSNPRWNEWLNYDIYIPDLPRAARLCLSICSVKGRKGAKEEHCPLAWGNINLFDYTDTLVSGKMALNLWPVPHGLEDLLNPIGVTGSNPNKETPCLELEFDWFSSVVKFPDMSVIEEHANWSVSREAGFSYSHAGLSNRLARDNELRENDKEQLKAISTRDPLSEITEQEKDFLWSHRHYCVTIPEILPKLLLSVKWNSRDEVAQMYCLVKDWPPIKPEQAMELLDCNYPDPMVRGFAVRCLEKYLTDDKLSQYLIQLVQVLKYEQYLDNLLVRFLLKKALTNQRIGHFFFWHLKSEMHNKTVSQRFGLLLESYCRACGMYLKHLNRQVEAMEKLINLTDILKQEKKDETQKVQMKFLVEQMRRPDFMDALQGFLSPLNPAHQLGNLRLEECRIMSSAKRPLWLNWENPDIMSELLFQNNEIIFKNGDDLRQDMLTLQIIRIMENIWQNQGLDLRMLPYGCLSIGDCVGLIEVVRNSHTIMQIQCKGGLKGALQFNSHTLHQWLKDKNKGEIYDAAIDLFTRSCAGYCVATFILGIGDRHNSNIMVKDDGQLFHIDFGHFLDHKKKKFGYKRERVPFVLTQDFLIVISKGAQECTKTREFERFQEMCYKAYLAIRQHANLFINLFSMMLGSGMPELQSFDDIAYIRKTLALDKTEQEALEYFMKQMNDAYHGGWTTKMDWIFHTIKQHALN

Cc1c(NC(=O)c2cc(C(N)=O)nc3cc(F)ccc23)c(C(F)(F)F)nn1Cc1ccc(C(C)(C)C)cc1 [BAY-588]
residual activity [1]: 100%
residual activity [2]: 89%
residual activity [3]: 100%
residual activity [4]: 99%
inhibition [5]: 2.92%
residual activity [6]: 84%
residual activity [7]: 94%
residual activity [8]: 86%
inhibition [9]: 23.1%
residual activity [10]: 100%
residual activity [11]: 100%
residual activity [12]: 100%
residual activity [13]: 100%
residual activity [14]: 100%
residual activity [15]: 93%
residual activity [16]: 100%
residual activity [17]: 97%
residual activity [18]: 96%
residual activity [19]: 97%
residual activity [20]: 91%
residual activity [21]: 82%
residual activity [22]: 90%
residual activity [23]: 100%
residual activity [24]: 100%
residual activity [25]: 100%
inhibition [26]: 18%
residual activity [27]: 100%
residual activity [28]: 87%
residual activity [29]: 87%
residual activity [30]: 100%
residual activity [31]: 100%
residual activity [32]: 43%
inhibition [33]: 14.7%
residual activity [34]: 100%
residual activity [35]: 76%
residual activity [36]: 84%
residual activity [37]: 100%
residual activity [38]: 95%
residual activity [39]: 100%
residual activity [40]: 100%
residual activity [41]: 100%
residual activity [42]: 93%
residual activity [43]: 100%
residual activity [44]: 92%
residual activity [45]: 93%

Cc1c(NC(=O)c2cc(C(N)=O)nc3cc(F)ccc23)c(C(F)(F)F)nn1Cc1ccc(C#N)cc1 [BAY-876]
residual activity [1]: 87%
residual activity [2]: 86%
residual activity [3]: 97%
residual activity [4]: 88%
inhibition [5]: 7.36%
residual activity [6]: 90%
residual activity [7]: 92%
residual activity [8]: 100%
inhibition [9]: 0.0425%
residual activity [10]: 88%
residual activity [11]: 75%
residual activity [12]: 83%
residual activity [13]: 81%
residual activity [14]: 88%
residual activity [15]: 100%
residual activity [16]: 99%
residual activity [17]: 100%
residual activity [18]: 100%
residual activity [19]: 95%
residual activity [20]: 90%
residual activity [21]: 86%
residual activity [22]: 76%
residual activity [23]: 74%
residual activity [24]: 85%
residual activity [25]: 95%
inhibition [26]: 8.73%
residual activity [27]: 93%
residual activity [28]: 100%
residual activity [29]: 80%
residual activity [30]: 61%
residual activity [31]: 75%
residual activity [32]: 84%
inhibition [33]: 8.22%
residual activity [34]: 66%
residual activity [35]: 89%
residual activity [36]: 95%
residual activity [37]: 85%
residual activity [38]: 92%
residual activity [39]: 76%
residual activity [40]: 83%
residual activity [41]: 72%
residual activity [42]: 66%
residual activity [43]: 83%
residual activity [44]: 100%
residual activity [45]: 91%
